Test results as given in ChEMBL document CHEMBL1201862, “PubChem BioAssay data set” (2004).
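Protocol summary: plate cells (96-well), add compound at 5 concentrations, incubate 48 h, interpolate endpoints linearly. Here, GI50 denotes the concentration required for 50% inhibition of growth.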 The source made the active and inactive calls. Cut-off read from the data, not from the text of the source: active = GI50 up to about 1.1 µM and inactive = higher.

Columns and labels:
Experiment in all cases: NCI-60 cell line screen, 48 h
[1] = system: SK-MEL-2
[2] = system: OVCAR-3
[3] = system: Malme-3M
[4] = system: MOLT-4
[5] = system: NCI-H522
[6] = system: KM12
[7] = system: XF498
[8] = system: LXFL 529
[9] = system: SW-620
[10] = system: SF-295
[11] = system: SK-MEL-28
[12] = system: UO-31
[13] = system: NCI-H226
[14] = system: RPMI-8226
[15] = system: M14
[16] = system: HCT-15
[17] = system: HCC 2998
[18] = system: DLD-1
[19] = system: CCRF-CEM
[20] = system: K562
[21] = system: HT-29
[22] = system: SF-268
[23] = system: 786-0
[24] = system: TK-10
[25] = system: IGROV-1
[26] = system: UACC-62
[27] = system: UACC-257
[28] = system: SK-OV-3
[29] = system: HCT-116
[30] = system: OVCAR-4
[31] = system: CAKI-1
[32] = system: SNB-75
[33] = system: SNB-78
[34] = system: NCI-H23
[35] = system: SK-MEL-5
[36] = system: LOX IMVI
[37] = system: M19-MEL
[38] = system: COLO 205
[39] = system: SN12C
[40] = system: EKVX
[41] = system: ACHN
[42] = system: DMS-114
[43] = system: SNB-19
[44] = system: HL-60
[45] = system: HOP-62
[46] = system: RXF 631
[47] = system: DMS-273
[48] = system: RXF 393
[49] = system: A549
[50] = system: A498
[51] = system: SF-539
[52] = system: OVCAR-5
[53] = system: HOP-92
[54] = system: U-251
[55] = system: OVCAR-8
[56] = system: NCI-H460
[57] = system: KM-20L2
[58] = system: HOP-18

Cc1ccc(NC(=O)CCc2nnc(N)o2)cc1
GI50 [1]: > 100 µM (inactive) | GI50 [2]: > 100 µM (inactive) | GI50 [3]: > 100 µM (inactive) | GI50 [4]: > 100 µM (inactive) | GI50 [5]: > 100 µM (inactive) | GI50 [6]: > 100 µM (inactive) | GI50 [7]: > 100 µM (inactive) | GI50 [8]: > 100 µM (inactive) | GI50 [9]: > 100 µM (inactive) | GI50 [10]: > 100 µM (inactive) | GI50 [11]: > 100 µM (inactive) | GI50 [12]: > 100 µM (inactive) | GI50 [13]: > 100 µM (inactive) | GI50 [14]: > 100 µM (inactive) | GI50 [15]: > 100 µM (inactive) | GI50 [16]: > 100 µM | GI50 [17]: > 100 µM (inactive) | GI50 [18]: > 100 µM (inactive) | GI50 [19]: > 100 µM (inactive) | GI50 [20]: > 75.7 µM (inactive) | GI50 [21]: > 100 µM (inactive) | GI50 [22]: > 100 µM (inactive) | GI50 [23]: > 100 µM (inactive) | GI50 [24]: > 100 µM (inactive) | GI50 [25]: > 100 µM (inactive) | GI50 [26]: > 100 µM (inactive) | GI50 [27]: > 100 µM (inactive) | GI50 [28]: > 100 µM (inactive) | GI50 [29]: > 100 µM (inactive) | GI50 [30]: > 100 µM (inactive) | GI50 [31]: > 100 µM (inactive) | GI50 [32]: > 100 µM (inactive) | GI50 [33]: > 100 µM (inactive) | GI50 [34]: > 100 µM (inactive) | GI50 [35]: > 100 µM (inactive) | GI50 [36]: > 100 µM (inactive) | GI50 [37]: > 100 µM (inactive) | GI50 [38]: > 100 µM (inactive) | GI50 [39]: > 100 µM (inactive) | GI50 [40]: > 100 µM (inactive) | GI50 [41]: > 100 µM (inactive) | GI50 [42]: > 100 µM (inactive) | GI50 [43]: > 100 µM (inactive) | GI50 [44]: > 67.3 µM (inactive) | GI50 [45]: > 100 µM (inactive) | GI50 [46]: > 31.6 µM (inactive) | GI50 [47]: > 100 µM (inactive) | GI50 [48]: > 100 µM (inactive) | GI50 [49]: > 100 µM (inactive) | GI50 [50]: > 100 µM (inactive) | GI50 [51]: > 100 µM (inactive) | GI50 [52]: > 100 µM (inactive) | GI50 [53]: > 100 µM (inactive) | GI50 [54]: > 100 µM (inactive) | GI50 [55]: > 100 µM (inactive) | GI50 [56]: > 100 µM (inactive) | GI50 [57]: > 100 µM (inactive)

COc1ccc(/C(Cl)=C(\C=O)c2ccc(Br)cc2)cc1OC
GI50 [1]: 16.5 µM (inactive) | GI50 [2]: > 100 µM (inactive) | GI50 [3]: 47.8 µM (inactive) | GI50 [4]: 4.27 µM (inactive) | GI50 [5]: 51.8 µM (inactive) | GI50 [6]: > 100 µM (inactive) | GI50 [7]: 9.33 µM (inactive) | GI50 [8]: > 100 µM (inactive) | GI50 [9]: > 100 µM (inactive) | GI50 [10]: 19.8 µM (inactive) | GI50 [11]: > 100 µM (inactive) | GI50 [12]: > 100 µM (inactive) | GI50 [13]: 19.5 µM (inactive) | GI50 [14]: 3.69 µM (inactive) | GI50 [15]: > 100 µM (inactive) | GI50 [16]: 25.1 µM | GI50 [17]: > 100 µM (inactive) | GI50 [18]: > 100 µM (inactive) | GI50 [20]: > 61 µM (inactive) | GI50 [21]: > 100 µM (inactive) | GI50 [22]: 23.2 µM (inactive) | GI50 [23]: 27.7 µM (inactive) | GI50 [24]: > 92.3 µM (inactive) | GI50 [25]: > 100 µM (inactive) | GI50 [26]: 33.7 µM (inactive) | GI50 [27]: > 100 µM (inactive) | GI50 [28]: > 100 µM (inactive) | GI50 [30]: > 100 µM (inactive) | GI50 [31]: > 100 µM (inactive) | GI50 [32]: 2.81 µM (inactive) | GI50 [58]: 48.4 µM (inactive) | GI50 [33]: 25.4 µM (inactive) | GI50 [34]: 64.7 µM (inactive) | GI50 [35]: > 100 µM (inactive) | GI50 [36]: 18.3 µM (inactive) | GI50 [37]: > 100 µM (inactive) | GI50 [38]: > 100 µM (inactive) | GI50 [39]: > 100 µM (inactive) | GI50 [40]: > 48.4 µM (inactive) | GI50 [41]: > 72.6 µM (inactive) | GI50 [43]: 26.3 µM (inactive) | GI50 [44]: 17 µM (inactive) | GI50 [45]: 34.8 µM (inactive) | GI50 [46]: > 62.4 µM (inactive) | GI50 [47]: > 100 µM (inactive) | GI50 [48]: 20.7 µM (inactive) | GI50 [49]: 62.5 µM (inactive) | GI50 [50]: 88.9 µM (inactive) | GI50 [51]: 26.1 µM (inactive) | GI50 [52]: > 100 µM (inactive) | GI50 [53]: 17.7 µM (inactive) | GI50 [54]: 32.8 µM (inactive) | GI50 [55]: 31.9 µM (inactive) | GI50 [56]: > 68.9 µM (inactive) | GI50 [57]: > 100 µM (inactive)

CC1OC(OC2CCCc3c(O)c4c(c(O)c32)C(=O)c2ccccc2C4=O)CC(N)C1O (stereo unspecified)
GI50 [1]: 1.75 µM (inactive) | GI50 [2]: 1.34 µM (inactive) | GI50 [3]: 1.82 µM (inactive) | GI50 [4]: 0.652 µM (active) | GI50 [5]: 1.64 µM (inactive) | GI50 [6]: 1.58 µM (inactive) | GI50 [7]: 1.93 µM (inactive) | GI50 [8]: 1.55 µM (inactive) | GI50 [9]: 1.33 µM (inactive) | GI50 [10]: 1.82 µM (inactive) | GI50 [11]: 1.88 µM (inactive) | GI50 [12]: 1.73 µM (inactive) | GI50 [13]: 1.69 µM (inactive) | GI50 [14]: 1.58 µM (inactive) | GI50 [15]: 1.79 µM (inactive) | GI50 [17]: 2.07 µM (inactive) | GI50 [18]: 1.33 µM (inactive) | GI50 [19]: 1.2 µM (inactive) | GI50 [20]: 1.01 µM (active) | GI50 [21]: 1.47 µM (inactive) | GI50 [22]: 1.69 µM (inactive) | GI50 [23]: 1.29 µM (inactive) | GI50 [24]: 1.6 µM (inactive) | GI50 [25]: 1.69 µM (inactive) | GI50 [27]: 1.62 µM (inactive) | GI50 [28]: 1.15 µM (inactive) | GI50 [29]: 1.72 µM (inactive) | GI50 [30]: 1.68 µM (inactive) | GI50 [31]: 1.43 µM (inactive) | GI50 [32]: 1.35 µM (inactive) | GI50 [33]: 1.89 µM (inactive) | GI50 [34]: 1.77 µM (inactive) | GI50 [35]: 1.82 µM (inactive) | GI50 [36]: 1.61 µM (inactive) | GI50 [37]: 1.78 µM (inactive) | GI50 [38]: 1.62 µM (inactive) | GI50 [39]: 1.68 µM (inactive) | GI50 [40]: 1.71 µM (inactive) | GI50 [41]: 1.88 µM (inactive) | GI50 [42]: 1.69 µM (inactive) | GI50 [43]: 1.64 µM (inactive) | GI50 [44]: 1.75 µM (inactive) | GI50 [45]: 1.57 µM (inactive) | GI50 [46]: 1.5 µM (inactive) | GI50 [48]: 1.02 µM (active) | GI50 [49]: 1.62 µM (inactive) | GI50 [50]: 1.7 µM (inactive) | GI50 [51]: 1.56 µM (inactive) | GI50 [52]: 1.91 µM (inactive) | GI50 [53]: 1.43 µM (inactive) | GI50 [54]: 1.86 µM (inactive) | GI50 [55]: 1.42 µM (inactive) | GI50 [56]: 1.43 µM (inactive) | GI50 [57]: 2.01 µM (inactive)
